Experimental data as given in patent US11739098B2 (BRISTOL-MYERS SQUIBB COMPANY, priority 2017, dated 2023).

Assays:
Type in all cases: cell-based
human TLR7 = target: T1, human TLR7 (Homo sapiens, UniProt Q9NYK1); assay: TLR7 inhibition reporter assay (HEK-Blue cells, SEAP reporter, gardiquimod stimulation); settings: HEK-Blue cells overexpressing human TLR7, SEAP reporter, gardiquimod 7.5 μM
T1 construct: host or cells: HEK-Blue cells (HEK293-derived reporter line)
T1 sequence (Q9NYK1 27-1049): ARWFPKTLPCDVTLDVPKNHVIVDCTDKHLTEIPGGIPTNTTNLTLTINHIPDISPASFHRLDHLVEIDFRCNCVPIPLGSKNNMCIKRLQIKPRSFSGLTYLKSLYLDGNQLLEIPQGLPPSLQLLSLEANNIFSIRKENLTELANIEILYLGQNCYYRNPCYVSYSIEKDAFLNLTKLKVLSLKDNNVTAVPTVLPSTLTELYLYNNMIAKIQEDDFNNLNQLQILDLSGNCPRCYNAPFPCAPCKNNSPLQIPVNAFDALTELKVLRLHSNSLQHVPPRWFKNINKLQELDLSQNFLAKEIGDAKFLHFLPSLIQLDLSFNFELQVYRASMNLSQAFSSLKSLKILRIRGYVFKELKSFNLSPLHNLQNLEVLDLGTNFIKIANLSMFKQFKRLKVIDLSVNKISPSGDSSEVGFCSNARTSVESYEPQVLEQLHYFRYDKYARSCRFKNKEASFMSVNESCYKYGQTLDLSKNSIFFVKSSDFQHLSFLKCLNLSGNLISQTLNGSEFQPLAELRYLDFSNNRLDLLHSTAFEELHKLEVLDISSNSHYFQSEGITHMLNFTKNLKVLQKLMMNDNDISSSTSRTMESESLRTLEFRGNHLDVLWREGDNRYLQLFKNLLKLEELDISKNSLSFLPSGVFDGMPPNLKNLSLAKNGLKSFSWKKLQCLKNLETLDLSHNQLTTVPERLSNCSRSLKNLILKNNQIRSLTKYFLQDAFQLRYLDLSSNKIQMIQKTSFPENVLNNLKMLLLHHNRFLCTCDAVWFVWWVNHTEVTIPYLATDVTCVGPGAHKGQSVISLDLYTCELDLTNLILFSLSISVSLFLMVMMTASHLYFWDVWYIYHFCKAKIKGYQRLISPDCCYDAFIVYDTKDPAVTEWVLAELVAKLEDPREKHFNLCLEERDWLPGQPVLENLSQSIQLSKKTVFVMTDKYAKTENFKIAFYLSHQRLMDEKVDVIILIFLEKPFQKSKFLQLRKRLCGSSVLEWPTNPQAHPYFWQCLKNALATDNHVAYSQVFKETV
In short: (§1)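 HEK-Blue cells overexpressing the receptor, with NF-κB/AP-1-driven SEAP, were pre-treated 30 min at room temperature with compound (0.05 nM–50 μM), then stimulated with gardiquimod 7.5 μM (TLR7), R848 15.9 μM (TLR8) or ODN2006 5 nM (TLR9). SEAP was read after 22 h at 37 °C as percent inhibition.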

human TLR8 = target: T2, human TLR8 (Homo sapiens, UniProt Q9NR97); assay: TLR8 inhibition reporter assay (HEK-Blue cells, SEAP reporter, R848 stimulation); settings: HEK-Blue cells overexpressing human TLR8, SEAP reporter, R848 15.9 μM
T2 construct: host or cells: HEK-Blue cells (HEK293-derived reporter line)
T2 sequence (Q9NR97 27-1041): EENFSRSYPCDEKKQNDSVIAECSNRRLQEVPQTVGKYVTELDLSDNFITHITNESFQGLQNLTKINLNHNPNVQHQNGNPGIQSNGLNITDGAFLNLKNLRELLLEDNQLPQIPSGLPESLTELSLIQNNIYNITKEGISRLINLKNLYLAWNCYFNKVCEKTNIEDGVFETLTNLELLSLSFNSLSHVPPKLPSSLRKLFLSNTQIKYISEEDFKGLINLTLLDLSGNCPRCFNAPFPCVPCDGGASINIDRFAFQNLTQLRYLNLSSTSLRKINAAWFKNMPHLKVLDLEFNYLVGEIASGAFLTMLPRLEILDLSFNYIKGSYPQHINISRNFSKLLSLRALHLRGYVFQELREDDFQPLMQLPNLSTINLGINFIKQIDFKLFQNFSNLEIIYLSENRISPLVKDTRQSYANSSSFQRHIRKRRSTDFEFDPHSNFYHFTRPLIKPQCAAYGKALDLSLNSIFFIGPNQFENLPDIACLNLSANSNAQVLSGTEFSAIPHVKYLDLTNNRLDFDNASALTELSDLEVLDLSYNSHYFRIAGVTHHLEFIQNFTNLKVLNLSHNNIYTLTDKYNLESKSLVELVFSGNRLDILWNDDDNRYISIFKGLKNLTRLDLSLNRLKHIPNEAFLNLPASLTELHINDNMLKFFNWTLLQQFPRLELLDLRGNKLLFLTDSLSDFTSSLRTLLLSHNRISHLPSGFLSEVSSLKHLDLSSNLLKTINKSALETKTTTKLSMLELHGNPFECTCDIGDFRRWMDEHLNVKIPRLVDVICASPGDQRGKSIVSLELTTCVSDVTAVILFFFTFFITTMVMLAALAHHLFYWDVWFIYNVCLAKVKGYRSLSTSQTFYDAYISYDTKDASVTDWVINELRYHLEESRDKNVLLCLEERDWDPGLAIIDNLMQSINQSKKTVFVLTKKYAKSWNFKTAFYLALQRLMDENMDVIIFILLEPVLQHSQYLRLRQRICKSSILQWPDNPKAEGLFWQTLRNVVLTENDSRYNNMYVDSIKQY
In short: as §1

human TLR9 = target: T3, human TLR9 (Homo sapiens, UniProt Q9NR96); assay: TLR9 inhibition reporter assay (HEK-Blue cells, SEAP reporter, ODN2006 stimulation); settings: HEK-Blue cells overexpressing human TLR9, SEAP reporter, ODN2006 5 nM
T3 construct: host or cells: HEK-Blue cells (HEK293-derived reporter line)
T3 sequence (Q9NR96 26-1032): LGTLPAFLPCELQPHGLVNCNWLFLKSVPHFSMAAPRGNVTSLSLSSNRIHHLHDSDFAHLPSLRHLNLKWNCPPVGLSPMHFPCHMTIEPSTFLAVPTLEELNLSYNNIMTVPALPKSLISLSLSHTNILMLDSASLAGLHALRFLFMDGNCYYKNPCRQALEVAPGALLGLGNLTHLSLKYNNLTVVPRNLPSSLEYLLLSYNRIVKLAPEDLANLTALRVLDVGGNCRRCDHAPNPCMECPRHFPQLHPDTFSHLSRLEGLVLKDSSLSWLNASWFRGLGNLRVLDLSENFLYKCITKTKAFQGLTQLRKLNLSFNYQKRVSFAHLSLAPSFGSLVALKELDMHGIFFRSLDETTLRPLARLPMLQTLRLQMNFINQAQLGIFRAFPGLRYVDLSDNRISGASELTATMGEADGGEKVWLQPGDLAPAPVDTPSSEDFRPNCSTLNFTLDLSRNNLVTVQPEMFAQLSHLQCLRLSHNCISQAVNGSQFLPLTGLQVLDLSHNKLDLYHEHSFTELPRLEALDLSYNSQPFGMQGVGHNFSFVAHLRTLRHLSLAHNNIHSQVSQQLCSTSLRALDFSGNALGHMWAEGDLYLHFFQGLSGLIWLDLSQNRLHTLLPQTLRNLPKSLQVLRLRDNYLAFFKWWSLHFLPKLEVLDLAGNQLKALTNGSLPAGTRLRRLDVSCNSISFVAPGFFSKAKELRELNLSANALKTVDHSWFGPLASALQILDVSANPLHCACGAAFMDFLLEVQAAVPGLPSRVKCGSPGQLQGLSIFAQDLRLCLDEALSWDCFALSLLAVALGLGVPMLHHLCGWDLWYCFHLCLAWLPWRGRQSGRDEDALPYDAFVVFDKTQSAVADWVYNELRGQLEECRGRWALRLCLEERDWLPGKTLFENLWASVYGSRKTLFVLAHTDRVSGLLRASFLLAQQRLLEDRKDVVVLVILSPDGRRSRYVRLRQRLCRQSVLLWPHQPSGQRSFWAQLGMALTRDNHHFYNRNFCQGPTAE
In short: as §1

SMILES | IC50 (human TLR7) [nM] | IC50 (human TLR8) [nM] | IC50 (human TLR9) [nM]
CC(C)c1c(-c2ccnc3[nH]ncc23)[nH]c2ccc(C3CCN(C(=O)CN4CCNC(=O)C4)CC3)cc12 [Example 587, 4-(2-(4-(3-isopropyl-2-(1H-pyrazolo[3,4-b]pyridin-4-yl)-1H-indol-5-yl)piperidin-1-yl)-2-oxoethyl) piperazin-2-one] | 100 to 1000 | 100 to 1000 | > 50000
CCc1c(-c2cnc3c(N)n[nH]c3c2)[nH]c2ccc(C3CCNCC3)cc12 [Example 240, 6-(3-ethyl-5-(piperidin-4-yl)-1H-indol-2-yl)-1H-pyrazolo[4,3-b]pyridin-3-amine] | 1000 to 50000 | 1000 to 50000 | 1000 to 50000
CC(C)c1c(-c2ccnc3[nH]ncc23)[nH]c2ccc(C3CCN(CCCN(C)C)CC3)cc12 [Example 845, 3-(4-(3-isopropyl-2-(1H-pyrazolo[3,4-b]pyridin-4-yl)-1H-indol-5-yl)piperidin-1-yl)-N,N-dimethylpropan-1-amine] | 100 to 1000 | 100 to 1000 | 100 to 1000
CCc1c(-c2cnc3cnccn23)[nH]c2ccc(C3CCNCC3)cc12 [Example 28, 3-(3-ethyl-5-(piperidin-4-yl)-1H-indol-2-yl)imidazo[1,2-a]pyrazine] | 1000 to 50000 | 1000 to 50000 | 100 to 1000
CC(=O)N1CCC[C@H]1C(=O)N1CCC(c2ccc3[nH]c(-c4ccnc5[nH]ncc45)c(C(C)C)c3c2)CC1 [Example 566, (S)-1-(2-(4-(3-isopropyl-2-(1H-pyrazolo[3,4-b]pyridin-4-yl)-1H-indol-5-yl)piperidine-1-carbonyl)pyrrolidin-1-yl)ethan-1-one] | 100 to 1000 | 100 to 1000 | > 50000
Cc1c(-c2ncnc3[nH]ccc23)[nH]c2ccc(C3CCN(C4CCN(C(C)C)CC4)CC3)cc12 [Example 814, 4-(5-(1′-isopropyl-[1,4′-bipiperidin]-4-yl)-3-methyl-1H-indol-2-yl)-7H-pyrrolo[2,3-d]pyrimidine] | 100 to 1000 | < 100 | < 100

Now from value to compound:

IC50 (human TLR7) [nM] | IC50 (human TLR8) [nM] | IC50 (human TLR9) [nM] | SMILES
< 100 | 100 to 1000 | 100 to 1000 | Cc1cn2cc(-c3[nH]c4ccc(C5CCN(CC(=O)N(C)C)CC5)cc4c3C(C)C)cc(C(F)(F)F)c2n1 [Example 376, 2-(4-(3-isopropyl-2-(2-methyl-8-(trifluoromethyl)imidazo[1,2-a]pyridin-6-yl)-1H-indol-5-yl)piperidin-1-yl)-N,N-dimethylacetamide]
< 100 | < 100 | 100 to 1000 | CCc1c(C)c(-c2[nH]c3ccc(C4CCNCC4)cc3c2C(C)C)cn2ccnc12 [Example 272, 8-ethyl-6-(3-isopropyl-5-(piperidin-4-yl)-1H-5 indol-2-yl)-7-methylimidazo[1,2-a]pyridine]
< 100 | 100 to 1000 | 1000 to 50000 | CC(C)c1c(-c2ccn3cnnc3c2)[nH]c2ccc(C3CCN(C4COC4)CC3)cc12 [Example 736, 7-(3-isopropyl-5-(1-(oxetan-3-yl)piperidin-4-yl)-1H-indol-2-yl)-[1,2,4]triazolo[4,3-a]pyridine]
< 100 | < 100 | 1000 to 50000 | Cc1cc(-c2[nH]c3ccc(C4CCN(C(=O)CCN5CCCCC5)CC4)cc3c2C(C)C)cn2nnnc12 [Example 629, 1-(4-(3-isopropyl-2-(8-methyltetrazolo[1,5-a]pyridin-6-yl)-1H-indol-5-yl)piperidin-1-yl)-3-(piperidin-1-yl)propan-1-one]
< 100 | < 100 | 1000 to 50000 | CC(C)c1c(-c2ccc3ncnn3n2)[nH]c2ccc(C3CCN(CC(C)(C)O)CC3)cc12 [Example 746, 1-(4-(2-([1,2,4]triazolo[1,5-b]pyridazin-6-yl)-3-isopropyl-1H-indol-5-yl)piperidin-1-yl)-2-methylpropan-2-ol]
< 100 | 100 to 1000 | 1000 to 50000 | CNC(=O)CN1CCC(c2ccc3[nH]c(-c4cc(C(F)(F)F)c5nc(C)cn5c4)c(C(C)C)c3c2)CC1 [Example 377, 2-(4-(3-isopropyl-2-(2-methyl-8-(trifluoromethyl)imidazo[1,2-a]pyridin-6-yl)-1H-indol-5-yl)piperidin-1-yl)-N-methylacetamide]
< 100 | 100 to 1000 | 1000 to 50000 | CC(C)c1c(-c2ccn3nnnc3c2)[nH]c2ccc(C3CCN(CC(=O)N(C)C)CC3)cc12 [Example 304, 2-(4-(3-isopropyl-2-(tetrazolo[1,5-a]pyridin-7-yl)-1H-indol-5-yl)piperidin-1-yl)-N,N-dimethylacetamide]
< 100 | 100 to 1000 | 1000 to 50000 | CC(C)c1c(-c2ccn3nncc3c2)[nH]c2ccc(C3CCN(C4COC4)CC3)cc12 [Example 735, 5-(3-isopropyl-5-(1-(oxetan-3-yl)piperidin-4-yl)-1H-indol-2-yl)-[1,2,3]triazolo[1,5-a]pyridine]
